In ChEMBL document CHEMBL1201862, “PubChem BioAssay data set” (2004):
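A five-concentration, 48-hour dose response in 96-well plates underlies each endpoint, interpolated linearly between surrounding concentrations. The concentration for 50% growth inhibition is given as GI50.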 Activity calls are given as the source filed them. Rule as the data show it: active = GI50 up to about 1.1 µM and inactive = higher.

Key:
Assay in all cases: growth of human tumour cells (NCI), 48 h
SK-OV-3 = tested on: SK-OV-3
OVCAR-3 = tested on: OVCAR-3
HOP-62 = tested on: HOP-62
SR = tested on: SR
NCI-H522 = tested on: NCI-H522
OVCAR-8 = tested on: OVCAR-8
SF-268 = tested on: SF-268
HT-29 = tested on: HT-29
SF-539 = tested on: SF-539
M14 = tested on: M14
RXF 393 = tested on: RXF 393
LOX IMVI = tested on: LOX IMVI
KM12 = tested on: KM12
A498 = tested on: A498
UACC-257 = tested on: UACC-257
IGROV-1 = tested on: IGROV-1
CAKI-1 = tested on: CAKI-1
NCI-H226 = tested on: NCI-H226
EKVX = tested on: EKVX
HCT-116 = tested on: HCT-116

With Cc1c(OC(C)C(=O)O)ccc2c(-c3ccccc3)cc(=O)oc12 (stereo not given) the GI50 (SK-OV-3) was > 100 µM (inactive), the GI50 (OVCAR-3) was > 100 µM (inactive) and the GI50 (HOP-62) was > 100 µM (inactive). The GI50 (SR) was > 100 µM (inactive), the GI50 (NCI-H522) was > 100 µM (inactive) and the GI50 (OVCAR-8) was > 100 µM (inactive). For the same compound, the GI50 (SF-268) was > 100 µM (inactive), the GI50 (HT-29) was > 100 µM (inactive) and the GI50 (SF-539) was > 100 µM (inactive). The GI50 (M14) was > 100 µM (inactive), the GI50 (RXF 393) was > 100 µM (inactive) and the GI50 (LOX IMVI) was > 100 µM (inactive). For the same compound, the GI50 (KM12) was > 100 µM (inactive), the GI50 (A498) was > 100 µM (inactive) and the GI50 (UACC-257) was > 100 µM (inactive). For the same compound, the GI50 (IGROV-1) was > 100 µM (inactive), the GI50 (CAKI-1) was > 100 µM (inactive) and the GI50 (NCI-H226) was > 100 µM (inactive). For the same compound, the GI50 (EKVX) was > 100 µM (inactive) and the GI50 (HCT-116) was > 100 µM (inactive).

Brc1cc(CCOC2CCCCO2)c(-c2sccc2CCOC2CCCCO2)s1 (stereo not given) was tested, and the GI50 (SK-OV-3) was > 69.2 µM (inactive), the GI50 (OVCAR-3) was 71.4 µM (inactive) and the GI50 (HOP-62) was 63.2 µM (inactive). The GI50 (SR) was 9.75 µM (inactive), the GI50 (NCI-H522) was 14.4 µM (inactive) and the GI50 (OVCAR-8) was 45.5 µM (inactive). For the same compound, the GI50 (SF-268) was 53.6 µM (inactive), the GI50 (HT-29) was 61.8 µM (inactive) and the GI50 (SF-539) was 55.5 µM (inactive). The GI50 (M14) was 31.8 µM (inactive), the GI50 (RXF 393) was 0.8 µM (active) and the GI50 (LOX IMVI) was 26.3 µM (inactive). For the same compound, the GI50 (KM12) was 27 µM (inactive), the GI50 (A498) was > 69 µM (inactive) and the GI50 (UACC-257) was 35.5 µM (inactive). The GI50 (IGROV-1) was 53.2 µM (inactive), the GI50 (CAKI-1) was > 91.4 µM (inactive) and the GI50 (NCI-H226) was > 100 µM (inactive). For the same compound, the GI50 (EKVX) was 47.6 µM (inactive) and the GI50 (HCT-116) was 23.2 µM (inactive).
